The values that follow come from ChEMBL document CHEMBL1148872, “Bradykinin B1 antagonists: biphenyl SAR studies in the cyclopropanecarboxamide series” (Bioorg Med Chem Lett, 2007).

SMILES strings stand for the structures. A value given as a limit tells only on which side of the number the result lay.

Data set [1] has as its target T1, B1 bradykinin receptor (Homo sapiens, UniProt P46663).
T1 sequence (P46663 whole entry): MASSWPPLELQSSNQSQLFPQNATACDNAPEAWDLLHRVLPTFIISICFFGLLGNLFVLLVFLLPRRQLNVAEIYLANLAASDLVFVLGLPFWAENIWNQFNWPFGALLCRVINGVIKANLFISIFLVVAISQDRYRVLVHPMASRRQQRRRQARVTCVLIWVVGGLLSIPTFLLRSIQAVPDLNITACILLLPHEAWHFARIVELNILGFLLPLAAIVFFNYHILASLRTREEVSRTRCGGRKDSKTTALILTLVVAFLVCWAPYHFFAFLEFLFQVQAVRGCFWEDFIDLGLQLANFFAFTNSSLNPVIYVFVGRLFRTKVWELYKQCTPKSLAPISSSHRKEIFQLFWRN
The data set is described as follows: Binding affinity to human BK1 receptor.

The target in data set [2] is T2, B1 bradykinin receptor (Homo sapiens) (UniProt P46663).
T2 sequence (whole entry): T1 sequence (P46663 whole entry)
The data set is described as follows: Receptor occupancy efficiency at human BK1 receptor in ex vivo transgenic receptor mouse occupancy model. Format: functional.

Data set [3] can be described thus: Half life in Sprague-Dawley rat at 10 mg/kg, po or 2 mg/kg, iv. The conditions noted are these: in vivo.
Data set [4] in a line: Apparent permeability of the compound. The conditions noted are these: not told.
Data set [5] in a line: in vivo. The conditions noted are these: Sprague-Dawley, rat, po, 10 mg/kg.
Description: Oral bioavailability in Sprague-Dawley rat at 10 mg/kg, po
A short description of data set [6]: Clearance in Sprague-Dawley rat at 10 mg/kg, po or 2 mg/kg, iv. The conditions noted are these: in vivo.
Data set [7] in a line: Half life in mongrel dog at 3 mg/kg, po or 1 mg/kg, iv. Particulars: in vivo.
Data set [8] in a line: Partition coefficient, log P of the compound. Particulars: octanol/water.
The nature of data set [9]: in vivo. Particulars: rhesus monkey, po, 3 mg/kg.
Data set [10] can be described thus: Ratio of drug level in brain to plasma in african green monkey at 2 mg/kg, iv after 30 mins. Particulars: chlorocebus aethiops.
Data set [11] is described as follows: in vivo. Particulars: mongrel, dog, po, 3 mg/kg.
Data set [12] is described as follows: Half life in rhesus monkey at 3 mg/kg, po or 1 mg/kg, iv. Particulars: in vivo.

As for `CCOC(=O)c1c(Cl)cc(Cl)cc1-c1ccc([C@@H](C)NC(=O)C2(NC(=O)C(F)(F)F)CC2)c(F)c1`, the Ki in data set [1] is 1.85 nM.

`Cc1noc(-c2ccc(Cl)cc2-c2ccc([C@@H](C)NC(=O)C3(NC(=O)C(F)(F)F)CC3)c(F)c2)n1` returned a Ki in data set [1] of 7.6 nM.

`COC(=O)c1c(Cl)cccc1-c1cnc([C@@H](C)NC(=O)C2(NC(=O)C(F)(F)F)CC2)c(F)c1` registered an Occ90 in data set [2] of 350 nM. The affinity in data set [1], expressed as Ki, was 0.77 nM.

In data set [1], `C[C@@H](NC(=O)C1(NC(=O)C(F)(F)F)CC1)c1ccc(-c2cc(Cl)ccc2-c2nnn(C)n2)cc1F` had a Ki of 1.45 nM.

`Cc1nc(-c2ccc(Cl)cc2-c2ccc([C@@H](C)NC(=O)C3(NC(=O)C(F)(F)F)CC3)c(F)c2)no1` came in with a Ki in data set [1] of 1.39 nM.

Regarding `COC(=O)c1ccc(Cl)cc1-c1ccc([C@@H](C)NC(=O)C2(NC(=O)C(F)(F)F)CC2)c(F)c1`, in data set [1], the Ki was found to be 2.05 nM.

`Cc1nc(-c2c(Cl)cc(Cl)cc2-c2ccc([C@@H](C)NC(=O)C3(NC(=O)C(F)(F)F)CC3)c(F)c2)no1` gave a half-life in [3] of 5.6 h. Further, in [4], the Papp worked out at 23 ×10⁻⁶ cm/s. Moreover, the bioavailability in [5] stood at 39%. Further, the Ki in [1] was found to be 2.4 nM. This molecule also came in with a clearance in [6] of 0.8 mL/min/kg.

Consider `CCOC(=O)c1c(Cl)cccc1-c1cnc([C@@H](C)NC(=O)C2(NC(=O)C(F)(F)F)CC2)c(F)c1`, for which the values for the half-life in data set [7], in [3] and in [12] were 2.3 h, 0.8 h and 1.1 h, respectively. In [2], this molecule displayed an Occ90 of 225 nM. The molecule also had a logP in [8] of 3.6. Besides, the Papp in [4] turned out to be 28 ×10⁻⁶ cm/s. The figures for the bioavailability in [5], in data set [9] and in data set [11] were 52%, 12% and 20%, respectively. In data set [10] (brain and plasma), the Kp at 0.5 h worked out at 0.7. This molecule also returned a Ki in [1] of 1.2 nM. Besides, the clearance in [6] is 6.8 mL/min/kg.

For the molecule `COC(=O)c1c(Cl)cc(Cl)cc1-c1ccc([C@@H](C)NC(=O)C2(NC(=O)C(F)(F)F)CC2)c(F)c1`, the half-life is 4.6 h in [3] and 3.9 h in data set [12]. Besides, in data set [2], the Occ90 turned out to be 450 nM. This molecule also yielded a logP in data set [8] greater than 3.8. Also, the Papp in [4] stood at 18 ×10⁻⁶ cm/s. For the same molecule, the bioavailability came out at 38% in data set [5], 20% in data set [9] and 19% in [11]. In addition, the Kp at 0.5 h in [10] (brain) stood at 1.1. Moreover, the affinity in [1], expressed as Ki, was 0.46 nM.

In data set [1], `C[C@@H](NC(=O)C1(NC(=O)C(F)(F)F)CC1)c1ncc(-c2cc(Cl)cc(Cl)c2-c2nnn(C)n2)cc1F` registered a Ki of 3.8 nM.

On to `COC(=O)c1c(Cl)cccc1-c1ccc([C@@H](C)NC(=O)C2(NC(=O)C(F)(F)F)CC2)c(F)c1` [MK0686], for which the Occ90 in data set [2] was 520 nM. In data set [8], the logP is greater than 3.6. In addition, the Kp at 0.5 h in data set [10] (brain and plasma) is 0.4.

`CCOC(=O)c1c(Cl)cc(Cl)cc1-c1cnc([C@@H](C)NC(=O)C2(NC(=O)C(F)(F)F)CC2)c(F)c1` registered a Ki in [1] of 1.8 nM.

`COC(=O)c1cc(Cl)ccc1-c1ccc([C@@H](C)NC(=O)C2(NC(=O)C(F)(F)F)CC2)c(F)c1` had a Ki in data set [1] of 134 nM.

In the case of `C[C@@H](NC(=O)C1(NC(=O)C(F)(F)F)CC1)c1ccc(-c2cc(Cl)cc(F)c2-c2nnn(C)n2)cc1F`, in [3], the half-life was 3.5 h. Moreover, the Papp in data set [4] is 23 ×10⁻⁶ cm/s. The molecule further showed a bioavailability in [5] of 64%. In data set [1], this molecule returned a Ki of 1.1 nM. The clearance in data set [6] came out at 2.3 mL/min/kg.

In the case of `COC(=O)c1c(Cl)cc(Cl)cc1-c1cnc([C@@H](C)NC(=O)C2(NC(=O)C(F)(F)F)CC2)c(F)c1`, the half-life in data set [7] is 6.6 h; in [3] it was 1.3 h; in data set [12], 2.5 h. In [2], this molecule registered an Occ90 of 210 nM. In data set [8], this molecule had a logP of 3.3. For the same molecule, in data set [4], the Papp was determined as 29 ×10⁻⁶ cm/s. The bioavailability in data set [5] amounted to 19%; in data set [9], 12%; in [11], 66%. In addition, the Kp at 0.5 h in data set [10] (brain and plasma) turned out to be 0.8. Besides, the affinity in data set [1], expressed as Ki, was 2.6 nM. In addition, the clearance in [6] was determined as 16.6 mL/min/kg.

In data set [3], `COC(=O)c1c(F)cc(Cl)cc1-c1ccc([C@@H](C)NC(=O)C2(NC(=O)C(F)(F)F)CC2)c(F)c1` had a half-life of 0.8 h. The Papp in data set [4] worked out at 27 ×10⁻⁶ cm/s. In [5], this molecule registered a bioavailability of 21%. Besides, the affinity in data set [1], expressed as Ki, was 0.68 nM. The molecule also displayed a clearance in data set [6] of 13 mL/min/kg.

As to `C[C@@H](NC(=O)C1(NC(=O)C(F)(F)F)CC1)c1ccc(-c2cc(Cl)cc(Cl)c2-c2nnn(C)n2)cc1F`, the Occ90 in data set [2] turned out to be 540 nM. Further, the Ki in data set [1] was 1.58 nM.
